Measured values taken from publication PMC3946636 (Cancer chemotherapy and pharmacology, 2013).

Tests used:
relapsed myeloma = experiment: Clinical response by International Myeloma Working Group criteria; format: in vivo, human; settings: 15 patients, all dose levels
[1] = Plasma pharmacokinetics, LC-MS/MS, non-compartmental analysis; format: in vivo, human; settings: for AUC(0-inf) / clearance / Cmax / half-life / Tmax / Vd: human, plasma, intravenous; for AUC(0-inf): Mean AUC0-∞ ± SD; for clearance: Mean CL ± SD; for Cmax: Mean Cmax ± SD; for half-life: Mean T1/2 ± SD; for Vd: Mean Vz ± SD
[2] = in vivo
[3] = in human serum; cited from earlier work
[4] = dose level 30 + 30 mg/m^2, cycle 1 days 1 and 22 combined
[5] = dose level 30+50 mg/m^2, cycle 1 days 1 and 22 combined
[6] = dose level 50+50 mg/m^2, cycle 1 days 1 and 22 combined

Which Confirmed partial responses (relapsed myeloma) does the source give for `CN1CC[C@H](c2c(O)cc(O)c3c(=O)cc(-c4ccccc4Cl)oc23)[C@H](O)C1` [Flavopiridol] here?
Its Confirmed partial responses is “no confirmed partial responses”.

And the “Patients with progressive disease after the first cycle” value (relapsed myeloma)?
The value was 4 patients.

And the AUC(0-inf) [1, 4]?
The AUC(0-inf) was 7.78 ± 2.75 µM·h.

What about the AUC(0-inf) [1, 5] of the same compound?
The AUC(0-inf) was 4.75 ± 1.06 µM·h.

What about the AUC(0-inf) [1, 6] of the same compound?
The AUC(0-inf) was 14.2 ± 5.34 µM·h.

What about the clearance [1, 4] of the same compound?
The clearance was 666 mL/min.

What about the clearance [1, 5] of the same compound?
Its clearance is 1280 mL/min.

And the clearance [1, 6]?
Its clearance is 643 mL/min.

And the Cmax [1, 4]?
Its Cmax is 1850 ± 800 nM.

And the Cmax [1, 5]?
Its Cmax is 1090 ± 430 nM.

What about the Cmax [1, 6] of the same compound?
Its Cmax is 2410 ± 740 nM.

And the half-life [1, 4]?
The half-life was 6.87 ± 3.24 h.

What about the half-life [1, 5] of the same compound?
The half-life was 3.65 ± 1.75 h.

And the half-life [1, 6]?
Its half-life is 5.35 ± 2.83 h.

And the Tmax ([1]; Mean Tmax ± SD, dose level 30 + 30 mg/m^2, cycle 1 days 1 and 22 combined)?
The Tmax was 0.52 ± 0.03 h.

And the Tmax ([1]; Mean Tmax ± SD, dose level 30+50 mg/m^2, cycle 1 days 1 and 22 combined)?
The Tmax was 1.18 ± 1.22 h.

And the Tmax ([1]; Mean Tmax ± SD, dose level 50+50 mg/m^2, cycle 1 days 1 and 22 combined)?
The Tmax was 1.4 ± 1.67 h.

And the Vd [1, 4]?
The Vd was 368 ± 210 L.

And the Vd [1, 5]?
Its Vd is 417 ± 242 L.

What about the Vd [1, 6] of the same compound?
The Vd was 317 ± 255 L.

And the Tmax ([1]; Tmax, outlier, 30/50 mg/m^2 dose level group, single profile)?
The Tmax was 3 h.

What about the “Average difference in AUC(0-∞), day 22 versus day 1” value ([1]; patients with PK data on both days (n=6), 95% CI −2.78 to 4.78, P=0.53) of the same compound?
Its value is 1.00 µM·h.

What about the “Dehydration, patients with toxicity” value ([2]; human) of the same compound?
Its value is 2 n.

And the “Diaphoresis, patients with toxicity” value ([2]; human)?
The value was 1 n.

And the “Dizziness, patients with toxicity” value ([2]; human)?
The value was 1 n.

What about the “Hyperglycemia, patients with toxicity” value ([2]; human) of the same compound?
Its value is 4 n.

And the “Hyperkalemia, patients with toxicity” value ([2]; human)?
Its value is 2 n.

What about the “Hypocalcemia, patients with toxicity” value ([2]; human) of the same compound?
Its value is 3 n.

What about the “Lymphopenia, patients with toxicity” value ([2]; human) of the same compound?
The value was 5 n.

And the “Nausea, patients with toxicity” value ([2]; human)?
The value was 3 n.

And the “Vomiting, patients with toxicity” value ([2]; human)?
Its value is 1 n.

What about the “Serious adverse events, number” value [2] of the same compound?
The value was “eight”.

And the Protein binding [3]?
The Protein binding was “highly protein bound”.
